Test results taken from the NIST ThermoML archive (doi:10.1021/je200721d).
± gives the expanded uncertainty stated by the source.

Experiment: xn = mol fraction of the nth substance listed
Conditions: Liquid, Vibrating tube method

CCCCCCCCCC [decane] + CCCCCC
Conditions | mass density [kg/m3]
332.93 K, 7000 kPa, x2 = 0.8991 | 643.52 ± 0.33
332.93 K, 8000 kPa, x2 = 0.8991 | 644.74 ± 0.34
332.93 K, 9000 kPa, x2 = 0.8991 | 645.94 ± 0.35
332.93 K, 10000 kPa, x2 = 0.8991 | 647.14 ± 0.36
332.93 K, 11000 kPa, x2 = 0.8991 | 648.32 ± 0.37
332.93 K, 12000 kPa, x2 = 0.8991 | 649.47 ± 0.38
332.93 K, 13000 kPa, x2 = 0.8991 | 650.61 ± 0.39
332.93 K, 14000 kPa, x2 = 0.8991 | 651.73 ± 0.4
332.93 K, 15000 kPa, x2 = 0.8991 | 652.84 ± 0.41
332.93 K, 16000 kPa, x2 = 0.8991 | 653.92 ± 0.42
332.93 K, 17000 kPa, x2 = 0.8991 | 654.97 ± 0.43
332.93 K, 18000 kPa, x2 = 0.8991 | 655.99 ± 0.44
332.93 K, 19000 kPa, x2 = 0.8991 | 657.01 ± 0.45
332.93 K, 20000 kPa, x2 = 0.8991 | 657.98 ± 0.46
332.93 K, 21000 kPa, x2 = 0.8991 | 658.93 ± 0.47
332.93 K, 22000 kPa, x2 = 0.8991 | 659.86 ± 0.48
332.93 K, 23000 kPa, x2 = 0.8991 | 660.76 ± 0.49
332.93 K, 24000 kPa, x2 = 0.8991 | 661.64 ± 0.5
332.93 K, 25000 kPa, x2 = 0.8991 | 662.49 ± 0.51
333.08 K, 1000 kPa, x2 = 0.2185 | 689.16 ± 0.26
333.08 K, 2000 kPa, x2 = 0.2185 | 690.17 ± 0.26
333.08 K, 3000 kPa, x2 = 0.2185 | 691.16 ± 0.27
333.08 K, 4000 kPa, x2 = 0.2185 | 692.16 ± 0.28
333.08 K, 5000 kPa, x2 = 0.2185 | 693.16 ± 0.29
333.08 K, 6000 kPa, x2 = 0.2185 | 694.13 ± 0.29
333.08 K, 7000 kPa, x2 = 0.2185 | 695.1 ± 0.3
333.08 K, 8000 kPa, x2 = 0.2185 | 696.06 ± 0.31
333.08 K, 9000 kPa, x2 = 0.2185 | 697.02 ± 0.32
333.08 K, 10000 kPa, x2 = 0.2185 | 697.94 ± 0.32
333.08 K, 10990 kPa, x2 = 0.2185 | 698.86 ± 0.33
333.08 K, 12000 kPa, x2 = 0.2185 | 699.77 ± 0.34
333.08 K, 13000 kPa, x2 = 0.2185 | 700.66 ± 0.35
333.08 K, 14000 kPa, x2 = 0.2185 | 701.54 ± 0.36
333.08 K, 15000 kPa, x2 = 0.2185 | 702.39 ± 0.36
333.08 K, 16000 kPa, x2 = 0.2185 | 703.25 ± 0.37
333.08 K, 17000 kPa, x2 = 0.2185 | 704.09 ± 0.38
333.08 K, 18000 kPa, x2 = 0.2185 | 704.93 ± 0.39
333.08 K, 19000 kPa, x2 = 0.2185 | 705.76 ± 0.4
333.08 K, 20000 kPa, x2 = 0.2185 | 706.56 ± 0.4
333.08 K, 21000 kPa, x2 = 0.2185 | 707.37 ± 0.41
333.08 K, 22000 kPa, x2 = 0.2185 | 708.17 ± 0.42
333.08 K, 23000 kPa, x2 = 0.2185 | 708.95 ± 0.43
333.08 K, 24000 kPa, x2 = 0.2185 | 709.72 ± 0.44
333.08 K, 25000 kPa, x2 = 0.2185 | 710.48 ± 0.45
333.1 K, 1000 kPa, x2 = 0.7524 | 650.65 ± 0.27
333.1 K, 2000 kPa, x2 = 0.7524 | 651.99 ± 0.28
333.1 K, 3000 kPa, x2 = 0.7524 | 653.29 ± 0.29
333.1 K, 4000 kPa, x2 = 0.7524 | 654.52 ± 0.3
333.1 K, 5000 kPa, x2 = 0.7524 | 655.72 ± 0.3
333.1 K, 6000 kPa, x2 = 0.7524 | 656.92 ± 0.31
333.1 K, 7000 kPa, x2 = 0.7524 | 658.07 ± 0.32
333.1 K, 8000 kPa, x2 = 0.7524 | 659.21 ± 0.33
333.1 K, 9000 kPa, x2 = 0.7524 | 660.35 ± 0.34
333.1 K, 10000 kPa, x2 = 0.7524 | 661.46 ± 0.35
333.1 K, 10990 kPa, x2 = 0.7524 | 662.52 ± 0.36
333.1 K, 12000 kPa, x2 = 0.7524 | 663.6 ± 0.37
333.1 K, 13000 kPa, x2 = 0.7524 | 664.65 ± 0.38
333.1 K, 14000 kPa, x2 = 0.7524 | 665.67 ± 0.39
333.1 K, 15000 kPa, x2 = 0.7524 | 666.7 ± 0.4
333.1 K, 16000 kPa, x2 = 0.7524 | 667.68 ± 0.4
333.1 K, 17000 kPa, x2 = 0.7524 | 668.66 ± 0.41
333.1 K, 18000 kPa, x2 = 0.7524 | 669.62 ± 0.42
333.1 K, 19000 kPa, x2 = 0.7524 | 670.59 ± 0.43
333.1 K, 20000 kPa, x2 = 0.7524 | 671.52 ± 0.44
333.1 K, 21000 kPa, x2 = 0.7524 | 672.45 ± 0.45
333.1 K, 22000 kPa, x2 = 0.7524 | 673.35 ± 0.46
333.1 K, 23000 kPa, x2 = 0.7524 | 674.23 ± 0.47
333.1 K, 24000 kPa, x2 = 0.7524 | 675.08 ± 0.48
333.1 K, 25000 kPa, x2 = 0.7524 | 675.91 ± 0.49
333.12 K, 1000 kPa, x2 = 0.0456 | 697.88 ± 0.25
333.12 K, 2000 kPa, x2 = 0.0456 | 698.9 ± 0.26
333.12 K, 3000 kPa, x2 = 0.0456 | 699.91 ± 0.27
333.12 K, 4000 kPa, x2 = 0.0456 | 700.9 ± 0.27
333.12 K, 5000 kPa, x2 = 0.0456 | 701.88 ± 0.28
333.12 K, 6000 kPa, x2 = 0.0456 | 702.84 ± 0.29
333.12 K, 7000 kPa, x2 = 0.0456 | 703.78 ± 0.3
333.12 K, 8000 kPa, x2 = 0.0456 | 704.71 ± 0.3
333.12 K, 9000 kPa, x2 = 0.0456 | 705.63 ± 0.31
333.12 K, 10000 kPa, x2 = 0.0456 | 706.54 ± 0.32
333.12 K, 10990 kPa, x2 = 0.0456 | 707.42 ± 0.32
333.12 K, 12000 kPa, x2 = 0.0456 | 708.3 ± 0.33
333.12 K, 13000 kPa, x2 = 0.0456 | 709.16 ± 0.34
333.12 K, 14000 kPa, x2 = 0.0456 | 710.01 ± 0.35
333.12 K, 15000 kPa, x2 = 0.0456 | 710.86 ± 0.36
333.12 K, 16000 kPa, x2 = 0.0456 | 711.67 ± 0.36
333.12 K, 17000 kPa, x2 = 0.0456 | 712.48 ± 0.37
333.12 K, 18000 kPa, x2 = 0.0456 | 713.29 ± 0.38
333.12 K, 19000 kPa, x2 = 0.0456 | 714.08 ± 0.39
333.12 K, 20000 kPa, x2 = 0.0456 | 714.87 ± 0.39
333.12 K, 21000 kPa, x2 = 0.0456 | 715.64 ± 0.4
333.12 K, 22000 kPa, x2 = 0.0456 | 716.39 ± 0.41
333.12 K, 23000 kPa, x2 = 0.0456 | 717.15 ± 0.42
333.12 K, 24000 kPa, x2 = 0.0456 | 717.89 ± 0.43
333.12 K, 25000 kPa, x2 = 0.0456 | 718.63 ± 0.43
